The results in this text go back to patent US20060183902A1, “Dihydroindolyl methanones as alpha 1a/1d adrenoreceptor modulators for the treatment of benign prostatic hypertrophy and lower urinary tract symptoms” (priority 2005, published 2006).

In one test the target is T1, α1d-AR (Homo sapiens, UniProt P25100).
T1 construct: expressed in transfected cells; host or cells: COS-7
T1 sequence (P25100 1-572): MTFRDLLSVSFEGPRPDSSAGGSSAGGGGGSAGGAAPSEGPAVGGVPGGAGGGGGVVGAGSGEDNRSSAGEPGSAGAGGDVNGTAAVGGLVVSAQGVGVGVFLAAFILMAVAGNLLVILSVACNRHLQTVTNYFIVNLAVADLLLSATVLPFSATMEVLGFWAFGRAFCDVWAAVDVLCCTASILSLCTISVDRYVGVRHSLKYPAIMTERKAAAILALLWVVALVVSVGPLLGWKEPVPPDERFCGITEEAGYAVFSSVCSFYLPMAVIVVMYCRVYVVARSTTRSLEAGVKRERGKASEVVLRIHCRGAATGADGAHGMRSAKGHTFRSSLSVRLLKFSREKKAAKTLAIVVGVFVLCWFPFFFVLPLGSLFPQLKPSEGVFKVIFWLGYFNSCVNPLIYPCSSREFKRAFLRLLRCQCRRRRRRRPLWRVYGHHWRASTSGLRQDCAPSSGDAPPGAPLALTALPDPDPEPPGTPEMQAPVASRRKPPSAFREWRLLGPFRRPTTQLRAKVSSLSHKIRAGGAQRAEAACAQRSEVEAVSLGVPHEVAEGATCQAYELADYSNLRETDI
Put plainly: α1-Adrenergic receptor radio-ligand (125I-HEAT) binding assay, α1d subtype. The following applies: COS-7 cell membranes transfected with α1d-AR, 125I-HEAT 50 pM; read-out: Receptor Binding, Ki α1d-AR. How it is done: (§1) Membranes were prepared from COS-7 cells (African Green monkey kidney SV40-transformed cells) that had been transfected with one of the three α1-AR subtypes by the following method:
(§2) COS cells from ten 100 mm tissue culture plates were scraped into a 5 mL volume of TE (a mixture of 50 mM tris(hydroxymethyl)aminomethane hydrochloride (Tris-HCl) and 5 mM ethylenediaminetetraacetic acid (EDTA) at pH 7.4). The cell suspension was disrupted with a Brinkman Polytron (at a setting of 8) for 10 sec. The disrupted cells were centrifuged at 1000×g for 10 min at 4° C. Supernatants were centrifuged at 34,500×g for 20 min at 4° C. The membrane pellets were suspended in a 2 mL volume of TNE (a mixture of 50 mM Tris-HCl, 5 mM EDTA and 150 mM NaCl at pH7.4). An aliquot of the membrane suspension was stored at −70° C. until use. The protein concentration was determined using a BioRad “DC” protein assay kit following membrane solubilization with Triton X-100.
(§3) Triplicate determinations of radio-ligand binding in the presence of increasing concentrations of testing compound were made. The reagents were added to 96-well polypropylene plate wells. Each assay well contained 140 μL TNE, 25 μL ^125I-2-(β-4-hydroxyplenyl)ethylaminomethyltetralone (^125I-HEAT) (specific activity 2200 Ci/mmol, Dupont-New England Nuclear, 50 pM final), 10 μL testing compound dissolved in dimethyl sulfoxide (DMSO) (1 pM to 10 μM in half-log increments, final), and 25 μL appropriate α1-AR membrane subtype suspension in TNE (0.5 ng/μL for the α1a and α1b subtypes and 13 ng/μL for the α1d subtype). The plate was incubated at rt for 1 hr. The contents of the wells were filtered through a glass filter (type C) (GF/C) membrane Unifilter plate (Packard Instruments) using the Packard Filtermate cell harvester. The filter plates were dried in a vacuum oven for 30 min at 40° C. 25 μL Microscint 20 liquid scintillation fluid (Packard Instuments) was added to each well. The radioactive content was analyzed in the TopCount microplate scintillation counter (Packard Instruments).
(§4) The Ki values (in nM) shown in Table 1 were determined using GraphPad Prism software.

A further test has as its target T2, α1b-AR (Homo sapiens, UniProt P35368).
T2 construct: expressed in transfected cells; host or cells: COS-7
T2 sequence (P35368 1-520): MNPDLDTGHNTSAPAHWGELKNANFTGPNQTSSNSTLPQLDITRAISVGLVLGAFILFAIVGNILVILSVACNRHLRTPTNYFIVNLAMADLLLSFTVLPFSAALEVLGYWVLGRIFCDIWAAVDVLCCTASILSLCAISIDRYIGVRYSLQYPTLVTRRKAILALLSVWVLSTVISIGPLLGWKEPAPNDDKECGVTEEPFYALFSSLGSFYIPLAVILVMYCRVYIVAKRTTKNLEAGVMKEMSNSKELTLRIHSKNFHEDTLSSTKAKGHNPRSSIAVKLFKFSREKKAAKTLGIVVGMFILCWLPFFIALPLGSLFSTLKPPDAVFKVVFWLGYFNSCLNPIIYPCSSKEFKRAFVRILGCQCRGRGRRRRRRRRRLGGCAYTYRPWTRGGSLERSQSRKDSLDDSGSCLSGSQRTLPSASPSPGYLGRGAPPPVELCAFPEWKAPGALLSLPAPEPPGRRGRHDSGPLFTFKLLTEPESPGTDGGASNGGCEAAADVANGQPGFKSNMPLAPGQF
Put plainly: α1-Adrenergic receptor radio-ligand (125I-HEAT) binding assay, α1b subtype. The following applies: COS-7 cell membranes transfected with α1b-AR, 125I-HEAT 50 pM; read-out: Receptor Binding, Ki α1b-AR. As to the method:
as §1, §2, §3, §4

The target of the next test is T3, α1a-AR (Homo sapiens, UniProt P35348).
T3 construct: expressed in transfected cells; host or cells: COS-7
T3 sequence (P35348 1-466): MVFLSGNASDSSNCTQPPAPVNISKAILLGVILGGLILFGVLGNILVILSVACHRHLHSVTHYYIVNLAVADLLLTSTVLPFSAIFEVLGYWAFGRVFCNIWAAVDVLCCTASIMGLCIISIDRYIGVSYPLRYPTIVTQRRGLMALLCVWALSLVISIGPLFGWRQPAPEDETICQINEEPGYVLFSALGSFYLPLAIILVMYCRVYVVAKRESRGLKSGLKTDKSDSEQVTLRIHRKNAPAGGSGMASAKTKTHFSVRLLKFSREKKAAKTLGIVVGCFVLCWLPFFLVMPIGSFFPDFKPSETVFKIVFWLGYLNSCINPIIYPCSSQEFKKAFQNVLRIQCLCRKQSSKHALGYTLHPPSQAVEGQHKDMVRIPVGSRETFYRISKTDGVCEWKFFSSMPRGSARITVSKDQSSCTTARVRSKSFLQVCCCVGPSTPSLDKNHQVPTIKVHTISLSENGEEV
Put plainly: α1-Adrenergic receptor radio-ligand (125I-HEAT) binding assay, α1a subtype. The settings on record: COS-7 cell membranes transfected with α1a-AR, 125I-HEAT 50 pM; read-out: Receptor Binding, Ki α1a-AR. How it is done:
as §1, §2, §3, §4

As usually defined, the Ki is the dissociation constant of the complex between target and ligand, obtained from inhibition or displacement.

Several values for one entry are separate records, joined by “and”; a condition that tells them apart may be missing. Equal values may be shown once.

Regarding `CC(C)Oc1ccccc1N1CCN(Cc2cccc(C(=O)N3CCc4ccc(N(C(=O)Nc5c(F)cccc5F)C(=O)Nc5c(F)cccc5F)cc43)c2)CC1` [Cpd 43, 3-(2,6-difluoro-phenyl)-1-(1-{3-[4-(2-isopropoxy-phenyl)-piperazin-1-ylmethyl]-benzoyl}-2,3-dihydro-1H-indol-6-yl)-1-(2,6-difluorophenylaminocarbonyl)-urea], the Ki on α1d-AR was 2.8 nM and 3.2 nM; at α1b-AR, 204 nM and 185 nM; on α1a-AR, 7.8 nM and 3.4 nM.

`CC(C)Oc1ccccc1C1CCN(Cc2cccc(C(=O)N3CCc4ccc(NS(=O)(=O)c5c(F)cccc5F)cc43)c2)CC1` [Cpd 58, 2,6-difluoro-N-(1-{3-[4-(2-isopropoxy-phenyl)-piperidin 1-ylmethyl]-benzoyl}-2,3-dihydro-1H-indol-6-yl)-benzenesulfonamide]: the inhibition constant (Ki) on α1d-AR was 1.9 nM and 1 nM; on α1b-AR it was 234 nM and 255 nM; at α1a-AR it was 0.8 nM and 0.5 nM.

In the case of `CC(C)Oc1ccccc1C1CCN(Cc2cccc(C(=O)N3CCc4ccccc43)c2)CC1` [Cpd 51, (2,3-dihydro-indol-1-yl)-{3-[4-(2-isopropoxy-phenyl)-piperidin-1-ylmethyl]-phenyl}-methanone], the Ki was 1.6 nM at α1d-AR, 106 nM at α1b-AR and 0.8 nM at α1a-AR.

For the compound `COc1ccccc1CN1CCN(Cc2ccc(C(=O)N3CCc4ccccc43)cc2)CC1` [Cpd 53, (2,3-dihydro-indol-1-yl)-{4-[4-(2-methoxy-benzyl)-piperazin-1-ylmethyl]-phenyl}-methanone], the Ki on α1d-AR stood at 96 nM; at α1b-AR, 104 nM; on α1a-AR it was 82 nM.

Consider `COc1cccc(OC)c1C(=O)Nc1ccc2c(c1)N(C(=O)c1cccc(CN3CCN(c4ccccc4OC(C)C)CC3)c1)CC2` [Cpd 28, N-(1-{3-[4-(2-isopropoxy-phenyl)-piperazin-1-ylmethyl]-benzoyl}-2,3-dihydro-1H-indol-6-yl)-2,6-dimethoxy-benzamide], for which the figures for the inhibition constant Ki at α1d-AR, on α1b-AR and at α1a-AR were 6.8 nM, 796 nM and 17 nM, respectively.

On to `CC(C)Oc1ccccc1N1CCN(Cc2cccc(C(=O)N3CCc4cc(NC(=O)Nc5ccccc5)ccc43)c2)CC1` [Cpd 21, 1-(1-{3-[4-(2-isopropoxy-phenyl)-piperazin-1-ylmethyl]-benzoyl}-2,3-dihydro-1H-indol-5-yl)-3-phenyl-urea], for which the inhibitory constant (Ki) on α1d-AR is 12.5 nM; on α1b-AR it was 1390 nM; on α1a-AR, 73 nM.

`COc1ccccc1C1CCN(Cc2ccc(C(=O)N3CCc4ccccc43)cc2)CC1` [Cpd 50, (2,3-dihydro-indol-1-yl)-{4-[4-(2-methoxy-phenyl)-piperidin-1-ylmethyl]-phenyl}-methanone]: the figures for the inhibition constant (Ki) on α1d-AR, on α1b-AR and on α1a-AR were 32 nM, 458 nM and 7.8 nM, respectively.

For the compound `COc1ccccc1C1CCN(Cc2ccc(C(=O)N3CCc4cc([N+](=O)[O-])ccc43)cc2)CC1` [Cpd 38, {4-[4-(2-methoxy-phenyl)-piperidin-1-ylmethyl]-phenyl}-(5-nitro-2,3-dihydro-indol-1-yl)-methanone], the inhibitory constant (Ki) was found to be 44.2 nM at α1d-AR, 461 nM on α1b-AR and 124 nM at α1a-AR.

As to `COc1ccccc1N1CCN(Cc2cccc(C(=O)N3CCc4ccccc43)c2)CC1` [Cpd 30, (2,3-dihydro-indol-1-yl)-{3-[4-(2-methoxy-phenyl)-piperazin-1-ylmethyl]-phenyl}-methanone], the inhibition constant (Ki) on α1d-AR was 4.5 nM and 42 nM; on α1b-AR, 278 nM and 193 nM; on α1a-AR it was 26 nM and 30.5 nM.

Consider `CC(C)Oc1ccccc1N1CCN(Cc2cccc(C(=O)N3CCc4ccc(NC(=O)Nc5c(F)cccc5F)cc43)c2)CC1` [Cpd 73, 1-(2,6-difluoro-phenyl)-3-(1-{3-[4-(2-isopropoxy-phenyl)-piperazin-1-ylmethyl]-benzoyl}-2,3-dihydro-1H-indol-6-yl)-urea], for which the Ki at α1d-AR was 1.5 nM; on α1b-AR it was 208 nM; on α1a-AR, 31 nM.

In the case of `CC(C)Oc1ccccc1N1CCN(Cc2cccc(C(=O)N3CCc4cc(S(C)(=O)=O)ccc43)c2)CC1` [Cpd 71, {3-[4-(2-isopropoxy-phenyl)-piperazin-1-ylmethyl]-phenyl}-(5-methanesulfonyl-2,3-dihydro-indol-1-yl)-methanone], the inhibition constant (Ki) was 16 nM and 21 nM at α1d-AR; 716 nM and 720 nM on α1b-AR; 14 nM and 17.5 nM on α1a-AR.

`CCOC(OCC)c1ccc(CNc2ccc3c(c2)N(C(=O)c2ccc(CN4CCC(c5ccccc5OC)CC4)cc2)CC3)cc1` [Cpd 37, [6-(4-diethoxymethyl-benzylamino)-2,3-dihydro-indol-1-yl]-{4-[4-(2-methoxy-phenyl)-piperidin-1-ylmethyl]-phenyl}-methanone]: the inhibitory constant (Ki) at α1d-AR was 98 nM; on α1b-AR, 909 nM; on α1a-AR, 75.6 nM.

For the compound `COc1ccccc1C1CCN(Cc2cccc(C(=O)N3CCc4ccc(NS(=O)(=O)c5c(F)cccc5F)cc43)c2)CC1` [Cpd 61, 2,6-difluoro-N-(1-{3-[4-(2-methoxy-phenyl)-piperidin-1-ylmethyl]-benzoyl}-2,3-dihydro-1H-indol-6-yl)-benzenesulfonamide], the inhibition constant (Ki) on α1d-AR worked out at 2.1 nM; at α1b-AR, 152 nM; on α1a-AR, 15.5 nM.

Turning to `COc1ccc(C(=O)Nc2ccc3c(c2)N(C(=O)c2cccc(CN4CCN(c5ccccc5OC(C)C)CC4)c2)CC3)cc1` [Cpd 42, N-(1-{3-[4-(2-isopropoxy-phenyl)-piperazin-1-ylmethyl]-benzoyl}-2,3-dihydro-1H-indol-5-yl)-4-methoxy-benzamide], the inhibition constant (Ki) at α1d-AR was found to be 5.8 nM; on α1b-AR, 447 nM; at α1a-AR, 3.8 nM.

Regarding `CC(C)Oc1ccccc1N1CCN(Cc2cccc(C(=O)N3CCc4ccc(NC(=O)c5ccc(F)cc5)cc43)c2)CC1` [Cpd 48, 4-fluoro-N-(1-{3-[4-(2-isopropoxy-phenyl)-piperazin-1-ylmethyl]-benzoyl}-2,3-dihydro-1H-indol-6-yl)-benzamide], the Ki amounted to 6 nM on α1d-AR, 889 nM at α1b-AR and 74 nM at α1a-AR.
